Measurements taken from US9695155B2, “Herbicidal substituted pyrimidinyloxy benzene compounds” (E. I. DU PONT DE NEMOURS AND COMPANY, priority 2013, dated 2017).

Columns and labels:
sedge, umbrella [1] = assay: Test C flooded paddy test; type: in vivo, Cyperus difformis; details: Flood, scale 0 to 100 (0 no effect, 100 complete control), 13 to 15 days
Procedure, shortened: (§1)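 Greenhouse pots flooded to 3 cm above soil at time of treatment received compound via the water, which stayed at that level.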

barnyardgrass [2] = assay: Test C flooded paddy test; type: in vivo, Echinochloa crus-galli; details: Flood, scale 0 to 100 (0 no effect, 100 complete control), 13 to 15 days
Description: (§2) At time of treatment, test pots were flooded to 3 cm above the soil surface, treated by application of test compounds directly to the paddy water, and then maintained at that water depth for the duration of the test. Treated plants and controls were maintained in a greenhouse for 13 to 15 days, after which time all species were compared to controls and visually evaluated. […] A dash (-) response means no test result.

rice [3] = assay: Test B flooded paddy test; type: in vivo, Oryza sativa; details: Flood, 250 g ai/ha; 0 to 100 scale where 0 is no effect and 100 is complete control
Procedure, shortened: (§3)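 Post-emergence paddy-water application at the 2-leaf stage, with 3 cm flood kept for the whole test. Response was judged visually relative to controls after 13 to 15 greenhouse days, 0 indicating no effect and 100 complete control.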

wheat [4] = assay: Test A preemergence; type: in vivo, Triticum aestivum; details: for Wheat plant response rating (0 to 100 scale): 125 g ai/ha; for Wheat plant response rating: 500 g ai/ha, 0 to 100 scale where 0 is no effect and 100 is complete control
Procedure, shortened: (§4)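 Compounds in non-phytotoxic solvent with surfactant applied as soil spray preemergence, or postemergence to plants 2-10 cm at one- to two-leaf stage, in loam/sand. After approximately 10 days in greenhouse, injury rated visually versus untreated controls, 0 (no effect) to 100 (complete control).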

wheat [5] = assay: Test A postemergence; type: in vivo, Triticum aestivum
Procedure, shortened: as §4

barnyardgrass [6] = assay: Test A preemergence; type: in vivo, Echinochloa crus-galli; details: for Barnyardgrass plant response rating (0 to 100 scale, 0 is no effect, 100 is complete control): 125 g ai/ha; for Barnyardgrass plant response rating: 500 g ai/ha, 0 to 100 scale where 0 is no effect and 100 is complete control
Procedure, shortened: as §4

pigweed [7] = assay: Test A postemergence; type: in vivo, Amaranthus retroflexus
Procedure, shortened: as §4

corn [8] = assay: Test A postemergence; type: in vivo, Zea mays
Procedure, shortened: as §4

sedge, umbrella [9] = assay: Test B flooded paddy test; type: in vivo, Cyperus difformis; details: Flood, 250 g ai/ha; 0 to 100 scale where 0 is no effect and 100 is complete control
Procedure, shortened: as §3

corn [10] = assay: Test A preemergence; type: in vivo, Zea mays; details: for Corn plant response rating (0 to 100 scale): 125 g ai/ha; for Corn plant response rating: 500 g ai/ha, 0 to 100 scale where 0 is no effect and 100 is complete control
Procedure, shortened: as §4

Heteranthera limosa = assay: Test B flooded paddy test; type: in vivo; details: Flood, 250 g ai/ha; 0 to 100 scale where 0 is no effect and 100 is complete control
Procedure, shortened: as §3

large (Lg) crabgrass [11] = assay: Test A preemergence; type: in vivo, Digitaria sanguinalis; details: for Crabgrass, Large plant response rating (0 to 100 scale): 125 g ai/ha; for Crabgrass, Large plant response rating: 500 g ai/ha, 0 to 100 scale where 0 is no effect and 100 is complete control
Procedure, shortened: as §4

large (Lg) crabgrass [12] = assay: Test A postemergence; type: in vivo, Digitaria sanguinalis
Procedure, shortened: as §4

barnyardgrass [13] = assay: Test B flooded paddy test; type: in vivo, Echinochloa crus-galli; details: Flood, 250 g ai/ha; 0 to 100 scale where 0 is no effect and 100 is complete control
Procedure, shortened: as §3

morningglory [14] = assay: Test A postemergence; type: in vivo, Ipomoea spp.
Procedure, shortened: as §4

giant foxtail [15] = assay: Test A preemergence; type: in vivo, Setaria faberii; details: for Foxtail, Giant plant response rating (0 to 100 scale): 125 g ai/ha; for Foxtail, Giant plant response rating: 500 g ai/ha, 0 to 100 scale where 0 is no effect and 100 is complete control
Procedure, shortened: as §4

ducksalad = assay: Test C flooded paddy test; type: in vivo, Heteranthera limosa; details: Flood, scale 0 to 100 (0 no effect, 100 complete control), 13 to 15 days
Description: as §2

morningglory [16] = assay: Test A preemergence; type: in vivo, Ipomoea spp.; details: for Morningglory plant response rating (0 to 100 scale): 125 g ai/ha; for Morningglory plant response rating: 500 g ai/ha, 0 to 100 scale where 0 is no effect and 100 is complete control
Procedure, shortened: as §4

pigweed [17] = assay: Test A preemergence; type: in vivo, Amaranthus retroflexus; details: for Pigweed plant response rating (0 to 100 scale): 125 g ai/ha; for Pigweed plant response rating: 500 g ai/ha, 0 to 100 scale where 0 is no effect and 100 is complete control
Procedure, shortened: as §4

giant foxtail [18] = assay: Test A postemergence; type: in vivo, Setaria faberii
Procedure, shortened: as §4

rice [19] = assay: Test C flooded paddy test; type: in vivo, Oryza sativa; details: Flood, scale 0 to 100 (0 no effect, 100 complete control), 13 to 15 days
Procedure, shortened: as §1

barnyardgrass [20] = assay: Test A postemergence; type: in vivo, Echinochloa crus-galli
Procedure, shortened: as §4

velvetleaf [21] = assay: Test A preemergence; type: in vivo, Abutilon theophrasti; details: for Velvetleaf plant response rating (0 to 100 scale): 125 g ai/ha; for Velvetleaf plant response rating: 500 g ai/ha, 0 to 100 scale where 0 is no effect and 100 is complete control
Procedure, shortened: as §4

velvetleaf [22] = assay: Test A postemergence; type: in vivo, Abutilon theophrasti
Procedure, shortened: as §4

[23] = 125 g ai/ha, 0 to 100 scale where 0 is no effect and 100 is complete control
[24] = 500 g ai/ha, 0 to 100 scale where 0 is no effect and 100 is complete control
[25] = 125 g ai/ha, 0 to 100 scale, 0 no effect, 100 complete control

COc1cnc(Oc2ccccc2-n2cc(Br)cn2)nc1 [Compound 234]
60: Plant response rating, Crabgrass, Large (large (Lg) crabgrass [12]; [24]) | Plant response rating, Morningglory (morningglory [14]; [24]) | Foxtail, Giant plant response rating (0 to 100 scale) (giant foxtail [15])
40: Plant response rating, Sedge, Umbrella (sedge, umbrella [1]; 250 g ai/ha) | Morningglory plant response rating (morningglory [14]; [23]) | Velvetleaf plant response rating (0 to 100 scale) (velvetleaf [21])
0: Plant response rating, Sedge, Umbrella (sedge, umbrella [1]; 31 g ai/ha) | Plant response rating, Sedge, Umbrella (sedge, umbrella [1]; 62 g ai/ha) | Plant response rating, Sedge, Umbrella (sedge, umbrella [1]; 125 g ai/ha) | Plant response rating, Barnyardgrass (barnyardgrass [2]; 31 g ai/ha) | Plant response rating, Barnyardgrass (barnyardgrass [2]; 62 g ai/ha) | Plant response rating, Barnyardgrass (barnyardgrass [2]; 125 g ai/ha) | Plant response rating, Barnyardgrass (barnyardgrass [2]; 250 g ai/ha) | Wheat plant response rating (0 to 100 scale) (wheat [4]) | Wheat plant response rating (wheat [4]) | Corn plant response rating (0 to 100 scale) (corn [10]) | Plant response rating, Ducksalad (ducksalad; 31 g ai/ha) | Plant response rating, Ducksalad (ducksalad; 62 g ai/ha) | Plant response rating, Ducksalad (ducksalad; 125 g ai/ha) | Morningglory plant response rating (0 to 100 scale) (morningglory [16]) | Plant response rating, Rice (rice [19]; 31 g ai/ha) | Plant response rating, Rice (rice [19]; 62 g ai/ha) | Plant response rating, Rice (rice [19]; 125 g ai/ha) | Plant response rating, Rice (rice [19]; 250 g ai/ha)
90: Plant response rating, Sedge, Umbrella (sedge, umbrella [9]) | Corn plant response rating (corn [10]) | Plant response rating, Ducksalad (Heteranthera limosa) | Crabgrass, Large plant response rating (0 to 100 scale) (large (Lg) crabgrass [11]) | Foxtail, Giant plant response rating (giant foxtail [15]) | Pigweed plant response rating (0 to 100 scale) (pigweed [17])
20: Plant response rating, Rice (rice [3]) | Wheat plant response rating (wheat [5]; [23]) | Plant response rating, Wheat (wheat [5]; [24]) | Barnyardgrass plant response rating (0 to 100 scale, 0 is no effect, 100 is complete control) (barnyardgrass [6]) | Corn plant response rating (corn [8]; [23]) | Crabgrass, Large plant response rating (large (Lg) crabgrass [12]; [23]) | Plant response rating, Barnyardgrass (barnyardgrass [13]) | Barnyardgrass plant response rating (barnyardgrass [20]; [23])
30: Plant response rating, Corn (corn [8]; [24]) | Plant response rating, Ducksalad (ducksalad; 250 g ai/ha) | Foxtail, Giant plant response rating (giant foxtail [18]; [23])
100: Barnyardgrass plant response rating (barnyardgrass [6]) | Pigweed plant response rating (pigweed [7]; [23]) | Plant response rating, Pigweed (pigweed [7]; [24]) | Crabgrass, Large plant response rating (large (Lg) crabgrass [11]) | Morningglory plant response rating (morningglory [16]) | Pigweed plant response rating (pigweed [17]) | Velvetleaf plant response rating (velvetleaf [21]) | Plant response rating, Velvetleaf (velvetleaf [22]; [24])
70: Plant response rating, Foxtail, Giant (giant foxtail [18]; [24]) | Plant response rating, Barnyardgrass (barnyardgrass [20]; [24]) | Velvetleaf plant response rating (velvetleaf [22]; [23])

C[Si](C)(C)C#Cc1cccc(Oc2ncc(Cl)cn2)c1-n1cc(Br)cn1 [Compound 293]
60: Plant response rating, Sedge, Umbrella (sedge, umbrella [1]; 31 g ai/ha) | Plant response rating, Pigweed (pigweed [7]; [25]) | Plant response rating, Velvetleaf (velvetleaf [22]; [25])
10: Barnyardgrass plant response rating (barnyardgrass [6]) | Plant response rating, Morningglory (morningglory [14]; [25]) | Plant response rating, Barnyardgrass (barnyardgrass [20]; [25]) | Plant response rating, Barnyardgrass (barnyardgrass [20]; [24])
90: Plant response rating, Pigweed (pigweed [7]; [24]) | Crabgrass, Large plant response rating (large (Lg) crabgrass [11]) | Foxtail, Giant plant response rating (giant foxtail [15])
85: Plant response rating, Sedge, Umbrella (sedge, umbrella [1]; 125 g ai/ha)
30: Plant response rating, Crabgrass, Large (large (Lg) crabgrass [12]; [24]) | Plant response rating, Morningglory (morningglory [14]; [24]) | Plant response rating, Ducksalad (ducksalad; 31 g ai/ha) | Plant response rating, Foxtail, Giant (giant foxtail [18]; [24])
80: Plant response rating, Sedge, Umbrella (sedge, umbrella [9]) | Plant response rating, Ducksalad (Heteranthera limosa) | Pigweed plant response rating (pigweed [17]) | Plant response rating, Velvetleaf (velvetleaf [22]; [24])
40: Crabgrass, Large plant response rating (0 to 100 scale) (large (Lg) crabgrass [11]) | Plant response rating, Ducksalad (ducksalad; 62 g ai/ha)
0: Plant response rating, Barnyardgrass (barnyardgrass [2]; 31 g ai/ha) | Plant response rating, Barnyardgrass (barnyardgrass [2]; 62 g ai/ha) | Plant response rating, Barnyardgrass (barnyardgrass [2]; 125 g ai/ha) | Plant response rating, Rice (rice [3]) | Wheat plant response rating (0 to 100 scale) (wheat [4]) | Wheat plant response rating (wheat [4]) | Plant response rating, Wheat (wheat [5]; [25]) | Plant response rating, Wheat (wheat [5]; [24]) | Barnyardgrass plant response rating (0 to 100 scale, 0 is no effect, 100 is complete control) (barnyardgrass [6]) | Plant response rating, Corn (corn [8]; [25]) | Corn plant response rating (0 to 100 scale) (corn [10]) | Corn plant response rating (corn [10]) | Plant response rating, Barnyardgrass (barnyardgrass [13]) | Morningglory plant response rating (0 to 100 scale) (morningglory [16]) | Morningglory plant response rating (morningglory [16]) | Plant response rating, Rice (rice [19]; 31 g ai/ha) | Plant response rating, Rice (rice [19]; 62 g ai/ha) | Plant response rating, Rice (rice [19]; 125 g ai/ha) | Velvetleaf plant response rating (0 to 100 scale) (velvetleaf [21]) | Velvetleaf plant response rating (velvetleaf [21])
20: Plant response rating, Corn (corn [8]; [24]) | Plant response rating, Crabgrass, Large (large (Lg) crabgrass [12]; [25]) | Foxtail, Giant plant response rating (0 to 100 scale) (giant foxtail [15]) | Pigweed plant response rating (0 to 100 scale) (pigweed [17]) | Plant response rating, Foxtail, Giant (giant foxtail [18]; [25])
75: Plant response rating, Sedge, Umbrella (sedge, umbrella [1]; 62 g ai/ha) | Plant response rating, Ducksalad (ducksalad; 125 g ai/ha)
